Experimental data published in patent US20240091359A1, “NOVEL ESR1 DERIVED PEPTIDES AND USES THEREOF FOR NEOANTIGEN THERAPY” (H. LEE MOFFITT CANCER CENTER AND RESEARCH INSTITUTE, INC., priority 2021, published 2024).

System: CD4+ Th1 cells
Experiment: ER peptide library screening: IFN-γ ELISA of supernatants from iDC-CD4+ Th1 co-culture after priming with peptide-pulsed DC1
Assay type: cell-based, human
Conditions: for immunogenicity (IFN-γ production) / donors with significant increase in IFN-γ production: four healthy normal donor samples; for immunogenicity (IFN-γ production): mutated peptides and native ER peptides side by side (FIG. 9-13, 20); for native ER peptide screening result (immunogenic epitope / candidate sequence): cumulative responses from donors tested, native ER library of 117 peptides (FIG. 7); for increase in IFN-γ production: native ER individual peptide screening, second sample (FIG. 6C, 6D)
Description: 176. We then take this peptide library and proceed with the screening process. Briefly, human autologous monocyte fractions from healthy donors and breast cancer patients are pulsed with class II peptides and are rapidly matured to a type-1 polarized dendritic cell (DC1) through the sequential addition of rhGM-CSF, rhIL-4, rhIFN-γ and LPS. Mature-peptide pulsed DC1's are then put in co-culture with autologous naïve T-cells, where these T-cells are presented with peptides via MHC-II molecules and are polarized to a type-1 effector CD4+ cell through DC1 secretion of IL-12. Additionally, IL-2 is added to the coculture to induce the rapid expansion of CD4+ Th1 cells, after 8-10 days of coculture, the now primed CD4+ Th1 cells are re-stimulated with immature dendritic cells presenting the matching class II peptide or an irrelevant class II negative control. Supernatants from the iDC-CD4+ Th1 co-culture are then screened through IFN-γ ELISA to measure Th1-response. An antigen specific response is considered to be significant as approximately a 2-fold increase in IFN-γ production (pg/mL) compared to the control. The final in vitro screening step is then to do a reverse sensitization. Where the primed CD4 T cells are re-stimulated with immature dendritic cells pulsed with the full tumor antigen in question, or the full protein. This step is important to determine if the identified immunogenic epitope can be recognized by T-cells primed to only a small amino acid sequence apart of the much larger protein.
178. The screening process (FIG. 3) of 10-5-1 is repeated on different samples as well to confirm commonalities in increased responses and reproducibility, ensuring that a response was not donor specific to keep track of common increased responses across donors and ultimately identify those reproducibly immunogenic peptides. The screening procedure follows the same experimental steps as mentioned before, and flows through a successive screening strategy, examining pools of 10 peptides, followed by pools of 5-peptides and eventually as individual peptides. This process allows for the rapid identification of the areas in the full protein sequence that may contain immunogenic peptides, rather than screening all peptides individually.
185. From the 11 noted point mutations, we cross matched their locations within the class II sequences of the ER peptide library. From this, each point mutation was represented in three peptide sequences due to the 10-amino acid overlap between adjacent sequences within the library. This overlap helps to account for binding affinity within the MHC II open binding groove (Table 3) 186. From the 11 mutations, a peptide library of 33 peptides (three sequences per mutation) was created (Table 3). As a comparison, we also screened the corresponding native or un-mutated ER sequences side-by-side to see if the mutation induced an increase in Th1 response compared to the native sequence.

TLHDQVHLLECAWLE [P75, native ER library peptide]
immunogenicity (IFN-γ production): not immunogenic

LSHIRHMSNKGMEHL [P103, native ER library peptide]
native ER peptide screening result (immunogenic epitope / candidate sequence): immunogenic
native ER peptide screening result (immunogenic epitope / candidate sequence) (listed as 103): candidate sequences
increase in IFN-γ production: almost identical response to 104

LYDLLLEMLDAHRLH [P108, native ER library peptide]
immunogenicity (IFN-γ production): not immunogenic

YSMKCKNVVPLYDLL [P106, native ER library peptide]
immunogenicity (IFN-γ production): not immunogenic

FLSSTLKSLEEKDHI [P93, native ER library peptide]
donors with significant increase in IFN-γ production: two of four donors

YLENEPSGYTVREAG [P27, native ER library peptide]
native ER peptide screening result (immunogenic epitope / candidate sequence): immunogenic
native ER peptide screening result (immunogenic epitope / candidate sequence) (listed as 27): candidate sequences
increase in IFN-γ production: approximately 1.4 fold

IILLNSGVYTFLSST [P91, native ER library peptide]
donors with significant increase in IFN-γ production: two of four donors

GFVDLTLHDQVHLLE [P74, native ER library peptide]
immunogenicity (IFN-γ production): not immunogenic

AKAGLTLQQQHQRLA [P99, native ER library peptide]
native ER peptide screening result (immunogenic epitope / candidate sequence): immunogenic
native ER peptide screening result (immunogenic epitope / candidate sequence) (listed as 99): candidate sequences

QQVPYYLENEPSGYT [P26, native ER library peptide]
native ER peptide screening result (immunogenic epitope / candidate sequence): immunogenic
native ER peptide screening result (immunogenic epitope / candidate sequence) (listed as 26): candidate sequences

KNVVPLYDLLLEMLD [P107, native ER library peptide]
immunogenicity (IFN-γ production): not immunogenic

HMSNKGMEHLYSMKC [P104, native ER library peptide]
native ER peptide screening result (immunogenic epitope / candidate sequence): immunogenic
native ER peptide screening result (immunogenic epitope / candidate sequence) (listed as 104): candidate sequences
